In brackets after ≈: the same amount, converted by molar mass.
How the values were obtained:
[1] = system: Staphylococcus aureus Smith; test: Remedial effect for infected mouse model; type: in vivo; conditions: male ICR(CD-1) mice infected intraabdominally with S. aureus Smith; compound subcutaneous two hours after infection; observed 4 to 7 days after treatment; probit method
Method: Remedial Effect for Infected Mouse Model
The compounds of the invention, QN3323-A, QN3323-B, thiocillin I and thiocillin II were tested using an infected mouse model to determine the effectivness thereof. Concretely, cells of Staphylococcus aureus Smith cultivated for 16 hours at 37° C. were suspended in 3% butamutin (by Tokyo Kasei), and the resulting cell suspension was intraabdominally infected into 4-week old male ICR(CD-1) mice (from Charles River of Japan, SPF) (about 3×10^6 CFU/mouse). Two hours after the infection, the compound of the invention dissolved in a solvent (10% DMSO, 10% HCO-60 (by Nikko Chemicals), 80% physiological saline), was subcutaneously administered to each mouse. On 4 to 7 days after the treatment, the mice were observed, and their ED50 value was calculated according to probit method.

[2] = system: Staphylococcus aureus CAY32001 (MRSA); test: MIC determination, standard method of the Chemotherapy Society of Japan; type: cell-based
Description: (§1) The minimal inhibitory concentration (MIC) of the compounds of the invention obtained in Example 1, QN3323A, QN3323-B, QN3323-Y1, thiocillin I, thiocillin II and micrococcin P2 against Staphylococcus aureus FDA209P (S. aureus), Staphylococcus epidermidis IID866 (S. epidezmidis), Enterococcus faecalis IID682 (E. Faecalis) and Enterococcus faecium CAY09—1 (E. faecium), as well as against drug-resistant bacteria, Staphylococcus aureus CAY32001 (MRSA) (S. aureus (MRSA)) and Enterococcus faecium CAY09—2 (VRE) (E. faecium (VRE)) was measured according to the standard method of the Chemotherapy Society of Japan (CHEMOTHERAPY, 1981, 29(1):76, revised minimal inhibitory concentration (MIC) determination method). The cells of S. aureus (MRSA) were incubated at 32° C.

[3] = system: Enterococcus faecium CAY09—2 (VRE); test: as above; type: cell-based
Description: as §1

[4] = system: Staphylococcus epidermidis IID866; test: as above; type: cell-based
Description: as §1

[5] = system: Staphylococcus aureus FDA209P; test: as above; type: cell-based
Description: as §1

[6] = system: Enterococcus faecium CAY09—1; test: as above; type: cell-based
Description: as §1

[7] = system: Enterococcus faecalis IID682; test: as above; type: cell-based
Description: as §1

[8] = S. aureus CAY32001 (MRSA), incubated at 32° C.

C/C=C(/NC(=O)c1csc(-c2csc(-c3ccc4c(n3)-c3csc(n3)C(C(C)OC)NC(=O)c3csc(n3)C(C(C)(C)O)NC(=O)c3csc(n3)/C(=C\C)NC(=O)C(C(C)O)NC(=O)c3csc-4n3)n2)n1)C(=O)NCC(C)O (centres unmarked) [Thiocillin II, thiocillin II]
ED5O [1]: 2.2 mg/kg
MIC [2, 8]: 0.10 µg/mL (≈ 0.0851 µM)
MIC ([3]; E. faecium CAY09—2 (VRE)): 0.05 µg/mL (≈ 0.0426 µM)

C/C=C(\NC(=O)c1csc(-c2csc(-c3ccc4c(n3)-c3csc(n3)[C@H]([C@@H](C)O)NC(=O)c3csc(n3)[C@H](C(C)C)NC(=O)c3csc(n3)/C(=C/C)NC(=O)[C@H]([C@@H](C)O)NC(=O)c3csc-4n3)n2)n1)C(=O)NCC(C)=O [Micrococcin P2, micrococcin P2]
MIC [2, 8]: 0.78 µg/mL (≈ 0.683 µM)
MIC ([3]; E. faecium CAY09—2 (VRE)): 0.2 µg/mL (≈ 0.175 µM)

C/C=C(\NC(=O)c1csc(-c2csc(-c3ccc4c(n3)-c3csc(n3)C(C(C)O)NC(=O)c3csc(n3)C(C(C)(C)O)NC(=O)c3csc(n3)/C(=C\C)NC(=O)C(C(C)O)NC(=O)c3csc-4n3)n2)n1)C(=O)NCC(C)O (centres unmarked) [QN3323-Y1]
MIC [4]: 0.25 µg/mL (≈ 0.215 µM)
MIC [5]: 0.25 µg/mL (≈ 0.215 µM)
MIC ([2]; Staphylococcus aureus, MRSA): 2 µg/mL (≈ 1.72 µM)
MIC [6]: 0.5 µg/mL (≈ 0.431 µM)
MIC [7]: 0.5 µg/mL (≈ 0.431 µM)
MIC ([3]; Enterococcus faecium, VRE): 0.25 µg/mL (≈ 0.215 µM)

C/C=C(\NC(=O)c1csc(-c2csc(-c3ccc4c(n3)-c3csc(n3)[C@H]([C@@H](C)O)NC(=O)c3csc(n3)[C@H](C(C)(C)O)NC(=O)c3csc(n3)/C(=C/C)NC(=O)[C@H]([C@@H](C)O)NC(=O)c3csc-4n3)n2)n1)C(=O)NC[C@@H](C)O [Thiocillin I, thiocillin I]
ED5O [1]: 1.4 mg/kg
MIC [2, 8]: 0.78 µg/mL (≈ 0.672 µM)
MIC ([3]; E. faecium CAY09—2 (VRE)): 0.78 µg/mL (≈ 0.672 µM)

Source: patent US7030085B2, “Thiopeptide compounds” (Astellas Pharma INC, priority 2001, dated 2006)
